Patent US10780174B2, “Lipid-linked prodrugs” (The University of British Columbia, priority 2015, dated 2020)

Assays:
[1] = In vitro degradation of lipid-linked prodrugs in LNP, mouse plasma; assay type: in vitro ADME; settings: LNP; for prodrug cleavage/degradation after 1 h in plasma: 37° C., mouse plasma
Method: (§1) Quantitation of prodrugs by HPLC: LD-DEX/DTX were quantified by ultra high-pressure liquid chromatography (UHPLC) using a Waters Acquity™ UPLC system equipped with a photodiode array detector (PDA) and evaporative light scattering (ELS) detector; Empower™ data acquisition software version 3.0 was used (Waters™, USA). Separations were performed using a Waters Acquity™ BEH C18 column (1.7 μm, 2.1×100 mm) at a flow rate of 0.5 ml/min, with mobile phases A and B consisting of methanol/10 mM ammonium bicarbonate (80/20% v/v) and methanol/acetonitrile (80/20% v/v), respectively. The mobile phases were delivered at a programmed linear gradient (45%-80% B in 1 min then to 99% B at 2 min) at a column temperature of 55° C. The analyte was measured by PDA (at a wavelength of 239 nm) and ELS detector against calibration standard curves. For the analysis of LD-DEX/DTX breakdown to active compound, linear gradients of 20/80% to 100/0% (acetonitrile/water, v/v) over 7 min were used.
To determine the biodegradability of the dexamethasone or docetaxel prodrugs (LD-DEX/DTX), 1 mg/mL LNP was incubated in mouse plasma (Cedarlane™, Burlington, Ontario) or PBS supplemented with 10 U of purified esterase (Sigma-Aldrich™, St. […] Post incubation, four volumes of chloroform/methanol (2:1) was added and the mixture was vortex mixed. Samples were centrifuged at 13,000 g for 5 minutes and the upper phase was discarded. The remaining organic phase was dried down under vacuum and the resulting lipid extract was dissolved in methanol/acetonitrile (1:1). Quantity of parent LD-DEX/DTX compound was determined by ultra high pressure liquid chromatography on a Waters Acquity™ H-Class UPLC System™ equipped with a BEH C18 column and a photodiode array detector.

[2] = tested on: purified porcine esterase; assay: In vitro degradation of lipid-linked prodrugs in LNP, purified esterase in PBS; settings: LNP, 24 h incubation
[3] = Particle size and polydispersity of LNP containing prodrug (dynamic light scattering); assay type: physicochemical; settings: PDI in brackets
Method: (§2) Preparation of LNP Systems: PC-Chol LNP systems were prepared by rapidly mixing POPC, cholesterol, lipid-linked prodrug and PEG-DMPE (in molar ratio of 49/39/10/2) dissolved in ethanol with phosphate-buffered saline using a T-junction mixer. Formulations were dialyzed against phosphate-buffered saline to remove residual ethanol and to raise the pH to 7.4. PC-TO and ionizable LNP systems were prepared in the same way except that the lipid compositions for these systems are: POPC, triolein, lipid-linked prodrug and PEG-DSPE (in molar ration of 19/70/10/1), and ionizable lipid, DSPC, cholesterol, lipid-linked prodrug and PEG-DMPE (in molar ration of 40/10/38.5/10/1.5), respectively.
Characterization of LNP: Particle size was determined by dynamic light scattering using a Malvern Zetasizer Nano ZS™ (Malvern, UK) following buffer exchange into phosphate-buffered saline. Number-weighted size and distribution data was used. Lipid concentrations were determined by measuring total cholesterol using the Cholesterol E enzymatic assay kit from Wako Chemicals USA™ (Richmond, Va.). The morphology of LNP formulations containing LD-DEX was analyzed by cryogenic-transmission electron microscopy (cryoTEM) as described previously [Leung et al. (2012)].

[4] = Prodrug incorporation (entrapment) in lipid nanoparticles, UHPLC; assay type: physicochemical
Method: as §2, §1

OVCAR3 cells = assay: In vitro growth inhibition by LD-DTX prodrugs, cell viability assay; assay type: cell-based; settings: Homo sapiens, OVCAR-3, 48 h, Ovcar3 cells
Method: OVCAR3 cells were obtained from ATCC (Manassas, Va.). Cells were seeded at 12,000 cells per well on 96-well plates and treated with free docetaxel, prodrugs, lipid nanoparticle formulations with or without prodrugs at 0 to 15 μM of docetaxel for 48 h. Cell viability was determined by a colorimetric assay, based on the tetrazolium salt MIT (3-(4,5-dimethylthiazol-2-yl)-2,5-diphenyltetrazolium bromide), as described previously [Mossman 1983].

[5] = tested on: IL1β expression in RAW 264.7 mouse macrophage cells; assay: In vitro immune suppression, LPS-treated RAW 264.7 cells, IL1β qRT-PCR; assay type: cell-based; settings: 2 ng/mL LPS, 4 h
Method: RAW 264.7 mouse macrophage cells were seeded at 250,000 cells per mL on 12-well plates and incubated at 37° C. overnight. Lipopolysaccharide (LPS) was dissolved in phosphate buffered saline at a concentration of 2 μg/ml. Cells were treated with lipid nanoparticles containing LD-DEX prodrugs and 2 ng/ml of LPS for 4 hours. This LPS concentration was chosen due to its ability to increase IL1β expression approximately 1000 times as compared to untreated cells. At the end of the incubation period, culture medium was aspirated and cellular RNA was extracted using the Purelink RNA™ extraction kit according to manufacturer's protocol (Life Technologies™, Burlington, ON). The concentration of extracted RNA was determined using a Nanodrop Lite™ (Thermo Fisher™). 1 μg of RNA was converted to cDNA using the High Capacity cDNA Reverse Transcription kit (Life Technologies™, Burlington, ON). In order to validate the sample preparation, a no template control and a negative reverse transcriptase control were included. The cDNA was then quantified using comparative real-time qPCR where the Ct (threshold cycle) values are converted to relative quantity using the 2-ΔΔCT method. The primer-probe sets were designed to bind to cDNA of Interleukin-1β(IL1β). Hypoxanthine-guanine phosphoribosyltransferase (HPRT) was chosen as the endogenous normalizer gene, which is known to maintain consistent levels with varying treatments.

[6] = tested on: immunostimulatory effects of LNP-CpG (plasma cytokines); assay: In vivo immune suppression by LD-DEX prodrugs, LNP-CpG model; design: species or system C57Bl/6 mice; settings: mice, i.v., 10 mg/kg of CpG, 2 h post injection
Method: 6-8 Weeks old female C57Bl/6 mice (Charles River Laboratories™, Wilmington, Mass.) were injected intravenously with lipid nanoparticles containing CpG DNA oligonucleotides (10 mg/kg), mRNA (3 mg/kg) or plasmid DNA (pDNA) (1 mg/kg). Animals were euthanized 2 hours post-injection and blood was collected via intracardiac or saphenous sampling. Plasma was separated from whole blood by centrifugation and analyzed for proinflammatory cytokines using the Mesoscale Proinflammatory Multiplex™ kit (Rockville, Md.) according to manufacturer's instruction. All procedures were approved by the Animal Care Committee at the University of British Columbia and were performed in accordance with guidelines established by the Canadian Council on Animal Care.

[7] = LD-DTX prodrug in ionizable LNP
[8] = LD-DEX prodrug in ionizable LNP

Compound	prodrug cleavage/degradation after 1 h in plasma [1]	release of active drug (UPLC chromatogram) in mouse plasma ([1]; 24 h incubation)	release of active drug (UPLC chromatogram) in purified esterase [2]	Particle size (PDI) PC-Chol LNP ([3]; LD-DTX prodrug in PC-Chol LNP)	Particle size (PDI) [ionizable LNP] [3, 7]	% Entrapment PC-Chol LNP ([4]; LD-DTX prodrug in PC-Chol LNP) [%]	% Entrapment [ionizable LNP] [4, 7]	IC50 (OVCAR3 cells; Free drugs) [nM]	IC50 (OVCAR3 cells; PC-Chol LNP) [nM]	IC50 (OVCAR3 cells; PC-TO LNP) [nM]	IC50 (OVCAR3 cells; ionizable LNP) [nM]	Particle size (PDI) PC-Chol LNP ([3]; LD-DEX prodrug in PC-Chol LNP)	Particle size (PDI) [ionizable LNP] [3, 8]	% Entrapment PC-Chol LNP ([4]; LD-DEX prodrug in PC-Chol LNP) [%]	% Entrapment [ionizable LNP] [4, 8]	IL1β expression versus control LNP without prodrug [5]	plasma cytokine (TNFα, IL-6 and IL-10) levels versus control LNP-CpG [6]	input amount incorporated into the final lipid nanoparticle preparation ([4]; of the input amount)	plasma TNFα and KC/GRO levels versus control LNP-CpG [6]
CCCCCCCCCCCCCC(=O)OCC(COC(=O)CCC(=O)O[C@@H](C(=O)O[C@H]1C[C@@]2(O)[C@@H](OC(=O)c3ccccc3)[C@@H]3[C@]4(OC(C)=O)CO[C@@H]4C[C@H](O)[C@@]3(C)C(=O)[C@H](O)C(=C1C)C2(C)C)[C@@H](NC(=O)OC(C)(C)C)c1ccccc1)OC(=O)CCCCCCCCCCCCC (stereo partly drawn) [LD22-DTX, (2R,3S)-1-(((2aR,4S,4aS,6R,9S,11S,12S,12aR,12bS)-12b-acetoxy-12-(benzoyloxy)-4,6,11-trihydroxy-4a,8,13,13-tetramethyl-5-oxo-2a,3,4,4a,5,6,9,10,11,12,12a,12b-dodecahydro-1H-7,11-methanocyclodeca[3,4]benzo[1,2-b]oxet-9-yl)oxy)-3-((tert-butoxycarbonyl)amino)-1-oxo-3-phenylpropan-2-yl (2,3-bis(tetradecanoyloxy)propyl) succinate]	largely not degraded	active docetaxel (DTX) was observed	active docetaxel (DTX) was observed	65 (0.04) nm	[39 (0.07)] nm	93	[100] %	51.7	~1550	315	93	–	–	–	–	–	–	–	–
CCCCCCCC/C=C\CCCCCCCCOC(=O)CCC(=O)OCC(=O)[C@@]1(O)[C@H](C)C[C@H]2[C@@H]3CCC4=CC(=O)C=C[C@]4(C)[C@@]3(F)[C@@H](O)C[C@@]21C [LD13-DEX, oleyl 2-((8S,9R,10S,11S,13S,14S,16R,17R)-9-fluoro-11,17-dihydroxy-10,13,16-trimethyl-3-oxo-6,7,8,9,10,11,12,13,14,15,16,17-dodecahydro-3H-cyclopenta[a]phenanthren-17-yl)-2-oxoethyl succinate]	partially degraded	–	–	–	–	–	–	–	–	–	–	61 (0.03) nm	[49 (0.07)] nm	100	[96] %	able to reduce IL1β expression	able to suppress plasma cytokine	–	–
CCCCC/C=C\C/C=C\CCCCCCCC(=O)OC(COC(=O)CCC(=O)OCC(=O)[C@@]1(O)[C@H](C)C[C@H]2[C@@H]3CCC4=CC(=O)C=C[C@]4(C)[C@@]3(F)[C@@H](O)C[C@@]21C)CN(C)C (some centres unmarked) [LD01-DEX]	significant cleavage	–	–	–	–	–	–	–	–	–	–	77 (0.06) nm	[51 (0.04)] nm	72	[65] %	–	–	65-72 mol %	marked reduction in cytokine levels
CCCCCCCCCCCCCC(=O)OCC(COC(=O)CCC(=O)OCC(=O)[C@@]1(O)[C@H](C)C[C@H]2[C@@H]3CCC4=CC(=O)C=C[C@]4(C)[C@@]3(F)[C@@H](O)C[C@@]21C)OC(=O)CCCCCCCCCCCCC (stereo partly drawn) [LD17-DEX, 2,3-dimyristroylpropyl (2-((8S,9R,10S,11S,13S,14S,16R,17R)-9-fluoro-11,17-dihydroxy-10,13,16-trimethyl-3-oxo-6,7,8,9,10,11,12,13,14,15,16,17-dodecahydro-3H-cyclopenta[a]phenanthren-17-yl)-2-oxoethyl) succinate]	not susceptible to degradation	–	–	–	–	–	–	–	–	–	–	–	[48 (0.06)] nm	–	[89] %	able to reduce IL1β expression	able to suppress plasma cytokine	–	–
CCCCC/C=C\C/C=C\CCCCCCCCOCCCCSCC(=O)[C@@]1(O)[C@H](C)C[C@H]2[C@@H]3CCC4=CC(=O)C=C[C@]4(C)[C@@]3(F)[C@@H](O)C[C@@]21C [LD07-DEX, (8S,9R,10S,11S,13S,14S,16R,17R)-9-fluoro-11,17-dihydroxy-10,13,16-trimethyl-17-(2-((4-(linoleyloxy)butyl)thio)acetyl)-6,7,8,9,10,11,12,13,14,15,16,17-dodecahydro-3H-cyclopenta[a]phenanthren-3-one]	no degradation	–	–	–	–	–	–	–	–	–	–	56 (0.03) nm	[47 (0.04)] nm	90	[88] %	IL1β expression at a similar level to control	–	–	did not exhibit any immunosuppressive effects
CCCCCCCCCCCCCCCCOC(=O)CCC(=O)OCC(=O)[C@@]1(O)[C@H](C)C[C@H]2[C@@H]3CCC4=CC(=O)C=C[C@]4(C)[C@@]3(F)[C@@H](O)C[C@@]21C [LD14-DEX, palmityl 2-((8S,9R,10S,11S,13S,14S,16R,17R)-9-fluoro-11,17-dihydroxy-10,13,16-trimethyl-3-oxo-6,7,8,9,10,11,12,13,14,15,16,17-dodecahydro-3H-cyclopenta[a]phenanthren-17-yl)-2-oxoethyl succinate]	partially degraded	–	–	–	–	–	–	–	–	–	–	67 (0.05) nm	[47 (0.06)] nm	100	[95] %	able to reduce IL1β expression	able to suppress plasma cytokine	–	–
